Test results published in patent US7884242B2, “N-heterocyclylphthaldiamides as insecticides” (Bayer CropScience AG, priority 2004, dated 2011).
Where a name gives a salt, the structure may show the parent alone.

Tests used:
[1] = log P determination by HPLC on reverse phase column, pH 2.3; assay type: physicochemical; details: reverse phase column (C 18), pH 2.3, 43° C.; for chromatographic logP: reverse phase HPLC column (C 18)
Experimental: The determination of the log P values given in the above table and preparation examples is carried out in accordance with EEC directive 79/831 Annex V.A8 by HPLC (High Performance Liquid Chromatography) on a reverse phase column (C 18). Temperature: 43° C. The determination is carried out under acidic conditions at pH 2.3 with 0.1% aqueous phosphoric acid and acetonitrile as eluents; linear gradient of 10% acetonitrile to 95% acetonitrile. Calibration was is carried out with unbranched alkan-2-ones (with 3 to 16 carbon atoms) of known log P values (Determination of log P values by the retention times by linear interpolation between two sequential alkanones).

[2] = tested on: green peach aphid (Myzus persicae); assay: Myzus test (spray treatment); assay type: in vivo; details: for pest or weed control at 100 g/ha: Myzus persicae, in Brassica oleracea, 120 h, read-out: Death rate in % after 5d; for activity in Myzus test (spray treatment): statement in words
Experimental: [table] For the preparation of a suitable active compound formulation 1 part by weight of the active compound is mixed with the above amounts of solvent and emulsifier and the concentrate is diluted to the desired concentration with water containing emulsifier. China cabbage slices (Brassica pekinensis) that are infected with all stages of the green peach aphid (Myzus persicae) are sprayed with an active compound preparation at the desired concentration. After the desired time the activity in % is determined. Here 100% means that all aphids were killed; 0% means that no aphids were killed.

[3] = 100 g/ha, spray treatment, China cabbage slices, after 5 d

| SMILES | chromatographic logP [1] | log P (pH 2.3) [1] | also measured |
| --- | --- | --- | --- |
| Cc1nc(Cn2nc(C(F)(F)F)nc2C(F)(F)F)ncc1NC(=O)c1cccc(Br)c1C(=O)N[C@@H](C)C[S+](C)[O-] (some centres unmarked) [Example 36] | 2.07 | – | pest or weed control at 100 g/ha [2, 3]: 100%; activity in Myzus test (spray treatment) [2]: good activity |
| Cc1nc(Cn2nc(C(F)(F)F)cc2C(F)(F)F)ncc1C(=O)O [2-(3,5-bistrifluoromethylpyrazol-1-yl-methyl)-4-methylpyrimidin-5-carboxylic acid] | 2.68 | – | – |
| CSC[C@H](C)NC(=O)c1c(Cl)cccc1C(=O)Nc1cnc(Cn2nc(C(F)(F)F)nc2C(F)(F)F)nc1C [Example 20] | 3.24 | – | pest or weed control at 100 g/ha [2, 3]: 100%; activity in Myzus test (spray treatment) [2]: good activity |
| Cc1nc(Cn2nc(C(F)(F)F)cc2C(F)(F)F)ncc1NC(=O)OC(C)(C)C [VI-1, tert-butyl [2-(3,5-bistrifluoromethylpyrazol-1-ylmethyl)-4-methylpyrimidin-5-yl]carbamidate] | 3.84 | – | – |
| Cc1nc(Cn2nc(C(F)(F)F)cc2C(F)(F)F)ncc1NC(=O)c1cccc(Cl)c1C(=O)N[C@@H](C)C[S+](C)[O-] (some centres unmarked) [Example 39] | – | – | Death rate in % after 5d [2, 3]: 100%; activity in Myzus test (spray treatment) [2]: good activity |
| Cc1nc(Cn2nc(C(F)F)cc2C(F)F)ncc1NC(=O)c1cccc(Cl)c1C(=O)NC(C)C[S+](C)[O-] (centres unmarked) [Example 32] | – | log P (pH 2.3): 1.67 | – |
| CSCC(C)NC(=O)c1c(Cl)cccc1C(=O)Nc1ccc(Cn2nc(C(F)(F)C(F)(F)F)nc2C(F)(F)F)nc1C (centres unmarked) [Example 43] | – | log P (pH 2.3): 3.80 | – |
| Cc1nc(Cn2nc(C(F)(F)F)cc2C(F)(F)F)ncc1NC(=O)c1cccc(Cl)c1C(=O)N[C@@H](C)CS(C)(=O)=O [Example 38] | – | – | pest or weed control at 100 g/ha [2, 3]: 100% |
| CSCC(C)NC(=O)c1c(Cl)cccc1C(=O)Nc1cnc(Cn2nc(C(F)(F)C(F)(F)F)cc2C(F)(F)C(F)(F)F)nc1C (centres unmarked) [Example 27] | – | log P (pH 2.3): 4.11 | – |
| CSCC(C)NC(=O)c1c(I)cccc1C(=O)Nc1ccc(Cn2nc(C(F)(F)F)nc2C(F)(F)F)nc1C (centres unmarked) [Example 12] | – | log P (pH 2.3): 3.52 | – |
| CSC[C@H](C)NC(=O)c1c(I)cccc1C(=O)Nc1cnc(Cn2nc(C(F)(F)F)nc2C(F)(F)F)nc1C [Example 22] | 3.35 | – | pest or weed control at 100 g/ha [2, 3]: 90%; activity in Myzus test (spray treatment) [2]: good activity |
| Cc1nc(Cn2nc(C(F)(F)C(F)(F)F)nc2C(F)(F)F)ncc1NC(=O)c1cccc(Br)c1C(=O)N[C@@H](C)C[S+](C)[O-] (some centres unmarked) [Example 28] | 2.42 | – | pest or weed control at 100 g/ha [2, 3]: 100%; activity in Myzus test (spray treatment) [2]: good activity |
| Cc1nc(Cn2nc(C(F)(F)F)cc2C(F)(F)F)ccc1NC(=O)c1cccc(Br)c1C(=O)NC(C)C[S+](C)[O-] (centres unmarked) [Example 11] | – | log P (pH 2.3): 2.32 | – |
| CSCC(C)NC(=O)c1c(Cl)cccc1C(=O)Nc1ccc(Cn2nc(C(F)(F)C(F)(F)F)cc2C(F)(F)F)nc1C (centres unmarked) [Example 42] | – | log P (pH 2.3): 3.95 | – |
| CSC[C@H](C)NC(=O)c1c(Cl)cccc1C(=O)Nc1cnc(Cn2nc(C(F)(F)F)cc2C(F)(F)F)nc1C [Example 4, N^1-[2-(3,5-bis-trifluoromethyl-pyrazol-1-ylmethyl)-4-methylpyrimidin-5-yl]-3-chloro-N^2-(S-1-methyl-2-methylsulphanylethyl)phthalamide] | 3.39 | – | – |
| Cc1nc(Cn2nc(C(F)F)cc2C(F)F)ncc1NC(=O)c1cccc(Cl)c1C(=O)NC(C)CS(C)(=O)=O (centres unmarked) [Example 33] | – | log P (pH 2.3): 1.89 | – |

Second part, led by results:

| chromatographic logP [1] | log P (pH 2.3) [1] | SMILES | also measured |
| --- | --- | --- | --- |
| 2.43 | – | Cc1nc(Cn2nc(C(F)(F)F)cc2C(F)(F)F)ncc1N [IIIa-2, 2-(3,5-bis-trifluoromethylpyrazol-1-yl-methyl)-4-methylpyrimidin-5-yl-amine] | – |
| 0.74 | – | N=C(N)Cn1nc(C(F)(F)F)cc1C(F)(F)F [IX-1, 2-(3,5-bistrifluoromethyl-pyrazol-1-yl)acetamidine hydrochloride] | – |
| – | log P (pH 2.3): 3.29 | Cc1nc(Cn2nc(C(F)(F)C(F)(F)F)cc2C(F)(F)C(F)(F)F)ncc1NC(=O)c1cccc(Cl)c1C(=O)NC(C)CS(C)(=O)=O (centres unmarked) [Example 25] | – |
| – | log P (pH 2.3): 4.23 | CSCC(C)NC(=O)c1c(Cl)cccc1C(=O)Nc1ccc(Cn2nc(C(F)(F)C(F)(F)F)nc2C(F)(F)C(F)(F)F)nc1C (centres unmarked) [Example 47] | – |
| 3.8 | – | CSC[C@H](C)NC(=O)c1c(Cl)cccc1C(=O)Nc1cc(Cn2nc(C(F)(F)F)nc2C(F)(F)F)sc1C [Example 3] | – |
| 2.17 | – | Cc1nc(Cn2nc(C(F)(F)F)cc2C(F)(F)F)ncc1NC(=O)c1cccc(Cl)c1C(=O)N[C@@H](C)C[S+](C)[O-] (some centres unmarked) [Example 5, N^1-[2-(3,5-bistrifluoromethylpyrazol-1-ylmethyl)-4-methylpyrimidin-5-yl]-3-chloro-N^2-(S-2-methanesulphinyl-1-methylethyl)phthalamide] | pest or weed control at 100 g/ha [2, 3]: 80%; activity in Myzus test (spray treatment) [2]: good activity |
| 2.49 | – | Cc1nc(Cn2nc(C(F)(F)F)nc2C(F)(F)F)ncc1NC(=O)c1cccc(Br)c1C(=O)N[C@@H](C)CS(C)(=O)=O [Example 37] | pest or weed control at 100 g/ha [2, 3]: 100%; activity in Myzus test (spray treatment) [2]: good activity |
| 2.13 | – | Cc1nc(Cn2nc(C(F)(F)F)nc2C(F)(F)F)ncc1NC(=O)c1cccc(I)c1C(=O)N[C@@H](C)C[S+](C)[O-] (some centres unmarked) [Example 40] | pest or weed control at 100 g/ha [2, 3]: 100%; activity in Myzus test (spray treatment) [2]: good activity |
| 3.29 | – | CSC[C@H](C)NC(=O)c1c(Br)cccc1C(=O)Nc1cnc(Cn2nc(C(F)(F)F)nc2C(F)(F)F)nc1C [Example 21] | pest or weed control at 100 g/ha [2, 3]: 100%; activity in Myzus test (spray treatment) [2]: good activity |
| – | log P (pH 2.3): 4.15 | CSCC(C)NC(=O)c1c(Cl)cccc1C(=O)Nc1ccc(Cn2nc(C(F)(F)C(F)(F)F)c(C(F)(F)F)c2F)nc1C (centres unmarked) [Example 46] | – |
| 3.96 | – | CCOC(=O)c1cnc(Cn2nc(C(F)(F)F)cc2C(F)(F)F)nc1C [Example V-1, ethyl 2-(3,5-bistrifluoromethyl-pyrazol-1-yl-methyl)-4-methylpyrimidine-5-carboxylate] | – |
| – | log P (pH 2.3): 4.37 | CSCC(C)NC(=O)c1c(Cl)cccc1C(=O)Nc1ccc(Cn2nc(C(F)(F)C(F)(F)F)cc2C(F)(F)C(F)(F)F)nc1C (centres unmarked) [Example 49] | – |
| 2.93 | – | COC(=O)Cn1nc(C(F)(F)F)cc1C(F)(F)F [methyl (3,5-bistrifluoromethyl-pyrazol-1-yl)acetate] | – |
| – | log P (pH 2.3): 2.65 | CSCC(C)NC(=O)c1c(Cl)cccc1C(=O)Nc1cnc(Cn2nc(C(F)F)cc2C(F)F)nc1C (centres unmarked) [Example 35] | – |
| – | log P (pH 2.3): 2.76 | Cc1nc(Cn2nc(C(F)(F)F)cc2C(F)(F)F)ccc1NC(=O)c1cccc(Br)c1C(=O)NC(C)CS(C)(=O)=O (centres unmarked) [Example 45] | – |
| 3.87 | – | CSC[C@H](C)/N=C1\OC(=O)c2cccc(I)c21 [II-1, 4-iodo-3-[(1S)-1-methyl-2-methylsulphanylethylimino]-3H-isobenzofuran-1-one] | – |
| – | log P (pH 2.3): 2.91 | Cc1nc(Cn2nc(C(F)(F)C(F)(F)F)cc2C(F)(F)C(F)(F)F)ncc1NC(=O)c1cccc(Cl)c1C(=O)NC(C)C[S+](C)[O-] (centres unmarked) [Example 26] | – |
